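Interpolation was linear, between the two tested concentrations surrounding the appropriate level; five concentrations were tested over 48 hours in 96-well plates. GI50 = concentration required for 50% inhibition of growth.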 The source made the active and inactive calls. Rule as the data show it: active = GI50 up to about 1.1 µM and inactive = higher.
What was measured:
Experiment in all cases: growth of human tumour cells (NCI), 48 h
NCI-H522 = system: NCI-H522
OVCAR-5 = system: OVCAR-5
SK-MEL-28 = system: SK-MEL-28
HL-60 = system: HL-60
ACHN = system: ACHN
HT-29 = system: HT-29
K562 = system: K562
NCI-H226 = system: NCI-H226
UACC-257 = system: UACC-257
SF-295 = system: SF-295
COLO 205 = system: COLO 205
U-251 = system: U-251
UACC-62 = system: UACC-62
HOP-18 = system: HOP-18
HOP-92 = system: HOP-92
SR = system: SR
NCI-H460 = system: NCI-H460
CCRF-CEM = system: CCRF-CEM
M19-MEL = system: M19-MEL
UO-31 = system: UO-31
OVCAR-3 = system: OVCAR-3
A549 = system: A549
SK-MEL-5 = system: SK-MEL-5
SW-620 = system: SW-620
TK-10 = system: TK-10
RPMI-8226 = system: RPMI-8226
Malme-3M = system: Malme-3M
OVCAR-8 = system: OVCAR-8
KM12 = system: KM12
A498 = system: A498
SF-539 = system: SF-539
SF-268 = system: SF-268
NCI-H23 = system: NCI-H23
LXFL 529 = system: LXFL 529
IGROV-1 = system: IGROV-1
SNB-19 = system: SNB-19
SK-OV-3 = system: SK-OV-3
SK-MEL-2 = system: SK-MEL-2
MOLT-4 = system: MOLT-4
SNB-75 = system: SNB-75
HCT-116 = system: HCT-116
HOP-62 = system: HOP-62
SN12C = system: SN12C
DMS-273 = system: DMS-273
OVCAR-4 = system: OVCAR-4
786-0 = system: 786-0
KM-20L2 = system: KM-20L2
LOX IMVI = system: LOX IMVI
DLD-1 = system: DLD-1
SNB-78 = system: SNB-78
RXF 393 = system: RXF 393
EKVX = system: EKVX
DMS-114 = system: DMS-114
M14 = system: M14
CAKI-1 = system: CAKI-1
HCT-15 = system: HCT-15
HCC 2998 = system: HCC 2998

Structure (SMILES): C=CCN1C(N)=C(C(N)=O)S/C1=C1/SC(=S)N(c2ccc(C)cc2)C1=O
- GI50 (NCI-H522): > 100 µM (inactive)
- GI50 (OVCAR-5): 5.66 µM (inactive)
- GI50 (SK-MEL-28): > 100 µM (inactive)
- GI50 (HL-60): > 100 µM (inactive)
- GI50 (ACHN): > 100 µM (inactive)
- GI50 (HT-29): > 100 µM (inactive)
- GI50 (K562): > 100 µM (inactive)
- GI50 (NCI-H226): > 100 µM (inactive)
- GI50 (UACC-257): > 100 µM (inactive)
- GI50 (SF-295): 49.8 µM (inactive)
- GI50 (COLO 205): > 100 µM (inactive)
- GI50 (U-251): > 100 µM (inactive)
- GI50 (UACC-62): > 100 µM (inactive)
- GI50 (HOP-18): 61.9 µM (inactive)
- GI50 (HOP-92): > 100 µM (inactive)
- GI50 (SR): > 100 µM (inactive)
- GI50 (NCI-H460): > 100 µM (inactive)
- GI50 (CCRF-CEM): > 100 µM (inactive)
- GI50 (M19-MEL): > 100 µM (inactive)
- GI50 (UO-31): > 100 µM (inactive)
- GI50 (OVCAR-3): > 100 µM (inactive)
- GI50 (A549): > 100 µM (inactive)
- GI50 (SK-MEL-5): > 100 µM (inactive)
- GI50 (SW-620): > 100 µM (inactive)
- GI50 (TK-10): > 100 µM (inactive)
- GI50 (RPMI-8226): > 100 µM (inactive)
- GI50 (Malme-3M): 36.8 µM (inactive)
- GI50 (OVCAR-8): > 100 µM (inactive)
- GI50 (KM12): > 100 µM (inactive)
- GI50 (A498): 3.65 µM (inactive)
- GI50 (SF-539): > 100 µM (inactive)
- GI50 (SF-268): > 100 µM (inactive)
- GI50 (NCI-H23): 65.3 µM (inactive)
- GI50 (LXFL 529): > 100 µM (inactive)
- GI50 (IGROV-1): > 100 µM (inactive)
- GI50 (SNB-19): > 100 µM (inactive)
- GI50 (SK-OV-3): > 100 µM (inactive)
- GI50 (SK-MEL-2): > 100 µM (inactive)
- GI50 (MOLT-4): > 100 µM (inactive)
- GI50 (SNB-75): 12.6 µM (inactive)
- GI50 (HCT-116): > 100 µM (inactive)

Structure (SMILES): C/C(=C(/C)c1cc[n+](C)cc1)c1cc[n+](C)cc1
- GI50 (HOP-62): > 75 µM (inactive)
- GI50 (NCI-H522): 18.8 µM (inactive)
- GI50 (OVCAR-5): > 75 µM (inactive)
- GI50 (SK-MEL-28): > 75 µM (inactive)
- GI50 (HL-60): > 75 µM (inactive)
- GI50 (ACHN): > 75 µM (inactive)
- GI50 (HT-29): > 75 µM (inactive)
- GI50 (SN12C): > 75 µM (inactive)
- GI50 (K562): 54.8 µM (inactive)
- GI50 (DMS-273): 36.1 µM (inactive)
- GI50 (UACC-257): > 75 µM (inactive)
- GI50 (SF-295): > 75 µM (inactive)
- GI50 (OVCAR-4): 69.8 µM (inactive)
- GI50 (COLO 205): 27.2 µM (inactive)
- GI50 (786-0): > 75 µM (inactive)
- GI50 (KM-20L2): > 75 µM (inactive)
- GI50 (U-251): > 75 µM (inactive)
- GI50 (UACC-62): > 75 µM (inactive)
- GI50 (HOP-18): > 75 µM (inactive)
- GI50 (HOP-92): > 75 µM (inactive)
- GI50 (LOX IMVI): 43.6 µM (inactive)
- GI50 (NCI-H460): > 75 µM (inactive)
- GI50 (CCRF-CEM): > 75 µM (inactive)
- GI50 (DLD-1): 39.9 µM (inactive)
- GI50 (UO-31): > 75 µM (inactive)
- GI50 (OVCAR-3): 9.12 µM (inactive)
- GI50 (SNB-78): > 75 µM (inactive)
- GI50 (RXF 393): > 75 µM (inactive)
- GI50 (A549): > 75 µM (inactive)
- GI50 (SK-MEL-5): > 75 µM (inactive)
- GI50 (EKVX): > 75 µM (inactive)
- GI50 (TK-10): > 75 µM (inactive)
- GI50 (RPMI-8226): 28 µM (inactive)
- GI50 (Malme-3M): > 75 µM (inactive)
- GI50 (DMS-114): 16.2 µM (inactive)
- GI50 (OVCAR-8): > 75 µM (inactive)
- GI50 (KM12): > 75 µM (inactive)
- GI50 (A498): > 75 µM (inactive)
- GI50 (SF-539): > 75 µM (inactive)
- GI50 (SF-268): > 75 µM (inactive)
- GI50 (M14): > 75 µM (inactive)
- GI50 (NCI-H23): > 75 µM (inactive)
- GI50 (LXFL 529): 69.8 µM (inactive)
- GI50 (IGROV-1): 34.4 µM (inactive)
- GI50 (SNB-19): > 75 µM (inactive)
- GI50 (SK-OV-3): > 75 µM (inactive)
- GI50 (SK-MEL-2): > 75 µM (inactive)
- GI50 (CAKI-1): > 75 µM (inactive)
- GI50 (MOLT-4): > 75 µM (inactive)
- GI50 (HCT-15): 52.7 µM
- GI50 (SNB-75): > 75 µM (inactive)
- GI50 (HCT-116): > 75 µM (inactive)

Structure (SMILES): NC(=S)N/N=C/c1nccc2ccccc12
- GI50 (HOP-62): 0.619 µM (active)
- GI50 (NCI-H522): 0.719 µM (active)
- GI50 (OVCAR-5): 0.685 µM (active)
- GI50 (SK-MEL-28): 2.37 µM (inactive)
- GI50 (HL-60): 0.393 µM (active)
- GI50 (ACHN): 0.0254 µM (active)
- GI50 (HT-29): 0.731 µM (active)
- GI50 (SN12C): 0.682 µM (active)
- GI50 (K562): 2.73 µM (inactive)
- GI50 (DMS-273): 0.272 µM (active)
- GI50 (SF-295): 0.168 µM (active)
- GI50 (OVCAR-4): 0.54 µM (active)
- GI50 (COLO 205): 0.957 µM (active)
- GI50 (786-0): 0.2 µM (active)
- GI50 (KM-20L2): 0.375 µM (active)
- GI50 (U-251): 0.296 µM (active)
- GI50 (UACC-62): 0.281 µM (active)
- GI50 (HOP-18): 1.21 µM (inactive)
- GI50 (HOP-92): 2.74 µM (inactive)
- GI50 (LOX IMVI): 0.322 µM (active)
- GI50 (SR): 0.664 µM (active)
- GI50 (NCI-H460): 0.415 µM (active)
- GI50 (CCRF-CEM): 0.453 µM (active)
- GI50 (M19-MEL): 0.918 µM (active)
- GI50 (DLD-1): 1.12 µM (active)
- GI50 (UO-31): 0.443 µM (active)
- GI50 (OVCAR-3): 0.307 µM (active)
- GI50 (RXF 393): 0.257 µM (active)
- GI50 (A549): 0.409 µM (active)
- GI50 (SK-MEL-5): 0.467 µM (active)
- GI50 (SW-620): 0.802 µM (active)
- GI50 (TK-10): 4.93 µM (inactive)
- GI50 (RPMI-8226): 1.22 µM (inactive)
- GI50 (Malme-3M): 0.0337 µM (active)
- GI50 (DMS-114): 0.361 µM (active)
- GI50 (OVCAR-8): 0.313 µM (active)
- GI50 (KM12): 0.873 µM (active)
- GI50 (A498): 0.515 µM (active)
- GI50 (SF-539): 0.223 µM (active)
- GI50 (SF-268): 0.377 µM (active)
- GI50 (HCC 2998): 0.664 µM (active)
- GI50 (M14): 0.482 µM (active)
- GI50 (NCI-H23): 0.459 µM (active)
- GI50 (LXFL 529): 1.96 µM (inactive)
- GI50 (IGROV-1): 0.762 µM (active)
- GI50 (SNB-19): 0.948 µM (active)
- GI50 (SK-OV-3): 0.594 µM (active)
- GI50 (SK-MEL-2): 2.7 µM (inactive)
- GI50 (CAKI-1): 0.738 µM (active)
- GI50 (MOLT-4): 0.461 µM (active)
- GI50 (HCT-15): 0.975 µM
- GI50 (SNB-75): 0.578 µM (active)
- GI50 (HCT-116): 0.914 µM (active)
